The compounds below were run against HSP90 (Homo sapiens, UniProt P07900) (assay: HSP90 inhibition (HSP90 IC50)).
Format: biochemical
`CCC(CC)Nc1cc(C(=O)N[C@H]2C[C@H]3CC[C@@H](C2)N3c2ccc(C(=O)CCN3CCCCC3)cn2)ccc1C(N)=O` [2-[(1-ethylpropyl)amino]-N4-{8-[5-(3-piperidin-1-ylpropanoyl)pyridin-2-yl]-8-azabicyclo[3.2.1]oct-3-endo-yl}benzene-1,4-dicarboxamide] was tested, and the IC50 was < 500 nM. With `CCC(CC)Nc1cc(C(=O)NC2CC3CCC(C2)N3c2ccc(C(=O)N[C@@H]3CCN(C(C)C)C3)cn2)ccc1C(N)=O` (stereo partly drawn) [2-[(1-ethylpropyl)amino]-N4-{8-[5-({[(3R)-1-(1-methylethyl)pyrrolidin-3-yl]amino}carbonyl)pyridin-2-yl]-8-azabicyclo[3.2.1]oct-3-endo-yl}benzene-1,4-dicarboxamide] the IC50 was < 500 nM. In the case of `CCC(CC)Nc1cc(C(=O)NC2CC3CCC(C2)N3c2ccc(C(=O)N[C@@H]3CCN(CC)C3)cn2)ccc1C(N)=O` (stereo partly drawn) [2-[(1-ethylpropyl)amino]-N4-{8-[5-({[(3R)-1-ethylpyrrolidin-3-yl]amino}carbonyl)pyridin-2-yl]-8-azabicyclo[3.2.1]oct-3-endo-yl}benzene-1,4-dicarboxamide], the IC50 is reported as < 500 nM. With `CCC(CC)Nc1cc(C(=O)NC2CC3CCC(C2)N3c2ccc(C(=O)N[C@H]3CCN(C(C)C)C3)cn2)ccc1C(N)=O` (stereo partly drawn) [2-[(1-ethylpropyl)amino]-N4-{8-[5-({[(3S)-1-(1-methylethyl)pyrrolidin-3-yl]amino}carbonyl)pyridin-2-yl]-8-azabicyclo[3.2.1]oct-3-endo-yl}benzene-1,4-dicarboxamide] the IC50 was < 500 nM. `C[C@H](NC(=O)c1ccc(N2C3CCC2CC(NC(=O)c2ccc(C(N)=O)c(N[C@H]4CC[C@H](O)CC4)c2)C3)nc1)c1ccc(N2CCN(C)CC2)cc1` (stereo partly drawn) [2-[(4-hydroxycyclohexyl)amino]-N4-(8-{5-[({(1S)-1-[4-(4-methylpiperazin-1-yl)phenyl]ethyl}amino)carbonyl]pyridin-2-yl}-8-azabicyclo[3.2.1]oct-3-endo-yl)benzene-1,4-dicarboxamide] was tested, and the IC50 was < 500 nM. In the case of `CC(C)N1CC[C@@H](NC(=O)c2ccc(N3C4CCC3CC(NC(=O)c3ccc(C(N)=O)c(N[C@H]5CC[C@H](O)CC5)c3)C4)nc2)C1` (stereo partly drawn) [2-[(4-trans-hydroxycyclohexyl)amino]-N4-{8-[5-({[1-(1-methylethyl)pyrrolidin-3-yl]amino}carbonyl)pyridin-2-yl]-8-azabicyclo[3.2.1]oct-3-endo-yl}benzene-1,4-dicarboxamide], the IC50 is reported as < 500 nM. In the case of `NC(=O)c1ccc(C(=O)N[C@H]2C[C@H]3CC[C@@H](C2)N3c2ccc(C(=O)CCNc3ccc(F)cc3)cn2)cc1NCC1CC1` [2-[(cyclopropylmethyl)amino]-N4-(8-{5-(N-(4-fluorophenyl)-beta-alanyl]pyridin-2-yl}-8-azabicyclo[3.2.1]oct-3-endo-yl)benzene-1,4-dicarboxamide], the IC50 is reported as 2000 to 10000 nM. With `CN1CCC(CCC(=O)c2ccc(N3[C@@H]4CC[C@H]3C[C@@H](NC(=O)c3ccc(C(N)=O)c(NCC5CC5)c3)C4)nc2)CC1` [2-[(cyclopropylmethyl)amino]-N4-(8-{5-[3-(1-methylpiperidin-4-yl)propanoyl]pyridin-2-yl}-8-azabicyclo[3.2.1]oct-3-endo-yl)benzene-1,4-dicarboxamide] the IC50 was < 500 nM. With `CN1CCN(CCC(=O)c2ccc(N3[C@@H]4CC[C@H]3C[C@@H](NC(=O)c3ccc(C(N)=O)c(NCC5CC5)c3)C4)nc2)CC1` [2-[(cyclopropylmethyl)amino]-N4-(8-{5-[3-(4-methylpiperazin-1-yl)propanoyl]pyridin-2-yl}-8-azabicyclo[3.2.1]oct-3-endo-yl)benzene-1,4-dicarboxamide] the IC50 was < 500 nM. With `NC(=O)c1ccc(C(=O)N[C@H]2C[C@H]3CC[C@@H](C2)N3c2ccc(C(=O)CCN3CCN(c4ccccc4)CC3)cn2)cc1NCC1CC1` [2-[(cyclopropylmethyl)amino]-N4-(8-{5-[3-(4-phenylpiperazin-1-yl)propanoyl]pyridin-2-yl}-8-azabicyclo[3.2.1]oct-3-endo-yl)benzene-1,4-dicarboxamide] the IC50 was 500 to 999 nM. `CCOCCC(=O)c1ccc(N2[C@@H]3CC[C@H]2C[C@@H](NC(=O)c2ccc(C(N)=O)c(NCC4CC4)c2)C3)nc1` [2-[(cyclopropylmethyl)amino]-N4-(8-{5-[3-(ethyloxy)propanoyl]pyridin-2-yl}-8-azabicyclo[3.2.1]oct-3-endo-yl)benzene-1,4-dicarboxamide] was tested, and the IC50 was < 500 nM. With `COCCC(=O)c1ccc(N2[C@@H]3CC[C@H]2C[C@@H](NC(=O)c2ccc(C(N)=O)c(NCC4CC4)c2)C3)nc1` [2-[(cyclopropylmethyl)amino]-N4-(8-{5-[3-(methyloxy)propanoyl]pyridin-2-yl}-8-azabicyclo[3.2.1]oct-3-endo-yl)benzene-1,4-dicarboxamide] the IC50 was < 500 nM. In the case of `C[C@H](NC(=O)c1ccc(N2C3CCC2CC(NC(=O)c2ccc(C(N)=O)c(NCC4CC4)c2)C3)nc1)c1ccc(N2CCN(C)CC2)cc1` (stereo partly drawn) [2-[(cyclopropylmethyl)amino]-N4-(8-{5-[({(1S)-1-[4-(4-methylpiperazin-1-yl)phenyl]ethyl}amino)carbonyl]pyridin-2-yl}-8-azabicyclo[3.2.1]oct-3-endo-yl)benzene-1,4-dicarboxamide], the IC50 is reported as < 500 nM. `CCC(=O)c1ccc(N2[C@@H]3CC[C@H]2C[C@@H](NC(=O)c2ccc(C(N)=O)c(NCC4CC4)c2)C3)nc1` [2-[(cyclopropylmethyl)amino]-N4-[8-(5-propanoylpyridin-2-yl)-8-azabicyclo[3.2.1]oct-3-endo-yl]benzene-1,4-dicarboxamide] was tested, and the IC50 was < 500 nM. For `CON(C)C(=O)c1ccc(N2[C@@H]3CC[C@H]2C[C@@H](NC(=O)c2ccc(C(N)=O)c(NCC4CC4)c2)C3)nc1` [2-[(cyclopropylmethyl)amino]-N4-[8-(5-{[methyl(methyloxy)amino]carbonyl}pyridin-2-yl)-8-azabicyclo[3.2.1]oct-3-endo-yl]benzene-1,4-dicarboxamide], the IC50 was 1000 to 2000 nM. `NC(=O)c1ccc(C(=O)N[C@H]2C[C@H]3CC[C@@H](C2)N3c2ccc(C(=O)CCN3CCCCC3)cn2)cc1NCC1CC1` [2-[(cyclopropylmethyl)amino]-N4-{8-(5-(3-piperidin-1-ylpropanoyl)pyridin-2-yl]-8-azabicyclo[3.2.1]oct-3-endo-yl}benzene-1,4-dicarboxamide] was tested, and the IC50 was < 500 nM. For `NC(=O)c1ccc(C(=O)NC2CC3CCC(C2)N3c2ccc(C(=O)CC(O)c3ccccc3)cn2)cc1NCC1CC1` (stereo not drawn) [2-[(cyclopropylmethyl)amino]-N4-{8-[5-(3-hydroxy-3-phenylpropanoyl)pyridin-2-yl]-8-azabicyclo[3.2.1]oct-3-endo-yl}benzene-1,4-dicarboxamide], the IC50 was 500 to 999 nM. With `CC(C)C(O)CC(=O)c1ccc(N2[C@@H]3CC[C@H]2C[C@@H](NC(=O)c2ccc(C(N)=O)c(NCC4CC4)c2)C3)nc1` (stereo partly drawn) [2-[(cyclopropylmethyl)amino]-N4-{8-[5-(3-hydroxy-4-methylpentanoyl)pyridin-2-yl]-8-azabicyclo[3.2.1]oct-3-endo-yl}benzene-1,4-dicarboxamide] the IC50 was < 500 nM. Work on `CC(C)CC(=O)c1ccc(N2[C@@H]3CC[C@H]2C[C@@H](NC(=O)c2ccc(C(N)=O)c(NCC4CC4)c2)C3)nc1` [2-[(cyclopropylmethyl)amino]-N4-{8-[5-(3-methylbutanoyl)pyridin-2-yl]-8-azabicyclo[3.2.1]oct-3-endo-yl}benzene-1,4-dicarboxamide] yielded an IC50 of 1000 to 2000 nM. With `NC(=O)c1ccc(C(=O)N[C@H]2C[C@H]3CC[C@@H](C2)N3c2ccc(C(=O)CCN3CCOCC3)cn2)cc1NCC1CC1` [2-[(cyclopropylmethyl)amino]-N4-{8-[5-(3-morpholin-4-ylpropanoyl)pyridin-2-yl]-8-azabicyclo[3.2.1]oct-3-endo-yl}benzene-1,4-dicarboxamide] the IC50 was < 500 nM. `NC(=O)c1ccc(C(=O)N[C@H]2C[C@H]3CC[C@@H](C2)N3c2ccc(C(=O)CCc3ccccc3)cn2)cc1NCC1CC1` [2-[(cyclopropylmethyl)amino]-N4-{8-[5-(3-phenylpropanoyl)pyridin-2-yl]-8-azabicyclo[3.2.1]oct-3-endo-yl}benzene-1,4-dicarboxamide] showed an IC50 of 2000 to 10000 nM. For `NC(=O)c1ccc(C(=O)N[C@H]2C[C@H]3CC[C@@H](C2)N3c2ccc(C(=O)CCC3CCNCC3)cn2)cc1NCC1CC1` [2-[(cyclopropylmethyl)amino]-N4-{8-[5-(3-piperidin-4-ylpropanoyl)pyridin-2-yl]-8-azabicyclo[3.2.1]oct-3-endo-yl}benzene-1,4-dicarboxamide], the IC50 was < 500 nM. `NC(=O)c1ccc(C(=O)N[C@H]2C[C@H]3CC[C@@H](C2)N3c2ccc(C(=O)CCN3CCCC3)cn2)cc1NCC1CC1` [2-[(cyclopropylmethyl)amino]-N4-{8-[5-(3-pyrrolidin-1-ylpropanoyl)pyridin-2-yl]-8-azabicyclo[3.2.1]oct-3-endo-yl}benzene-1,4-dicarboxamide] was tested, and the IC50 was < 500 nM. With `NC(=O)c1ccc(C(=O)N[C@H]2C[C@H]3CC[C@@H](C2)N3c2ccc(C(=O)CCC(F)(F)F)cn2)cc1NCC1CC1` [2-[(cyclopropylmethyl)amino]-N4-{8-[5-(4,4,4-trifluorobutanoyl)pyridin-2-yl]-8-azabicyclo[3.2.1]oct-3-endo-yl}benzene-1,4-dicarboxamide] the IC50 was 2000 to 10000 nM. In the case of `CC(C)CCC(=O)c1ccc(N2[C@@H]3CC[C@H]2C[C@@H](NC(=O)c2ccc(C(N)=O)c(NCC4CC4)c2)C3)nc1` [2-[(cyclopropylmethyl)amino]-N4-{8-[5-(4-methylpentanoyl)pyridin-2-yl]-8-azabicyclo[3.2.1]oct-3-endo-yl}benzene-1,4-dicarboxamide], the IC50 is reported as < 500 nM. `CN(C)CCC(=O)c1ccc(N2[C@@H]3CC[C@H]2C[C@@H](NC(=O)c2ccc(C(N)=O)c(NCC4CC4)c2)C3)nc1` [2-[(cyclopropylmethyl)amino]-N4-{8-[5-(N,N-dimethyl-beta-alanyl)pyridin-2-yl]-8-azabicyclo[3.2.1]oct-3-endo-yl}benzene-1,4-dicarboxamide] was tested, and the IC50 was < 500 nM. Work on `NC(=O)c1ccc(C(=O)N[C@H]2C[C@H]3CC[C@@H](C2)N3c2ccc(C(=O)CN3CCCCC3)cn2)cc1NCC1CC1` [2-[(cyclopropylmethyl)amino]-N4-{8-[5-(piperidin-1-ylacetyl)pyridin-2-yl]-8-azabicyclo[3.2.1]oct-3-endo-yl}benzene-1,4-dicarboxamide] yielded an IC50 of 2000 to 10000 nM. `NC(=O)c1ccc(C(=O)N[C@H]2C[C@H]3CC[C@@H](C2)N3c2ccc(C(=O)C(F)(F)F)cn2)cc1NCC1CC1` [2-[(cyclopropylmethyl)amino]-N4-{8-[5-(trifluoroacetyl)pyridin-2-yl]-8-azabicyclo[3.2.1]oct-3-endo-yl}benzene-1,4-dicarboxamide] showed an IC50 of 2000 to 10000 nM.

— patent US8012956B2, “Tropane compounds” (Exelixis, Inc., priority 2007, dated 2011)
